# Source: US20250248979A1, “NOVEL GPX4 INHIBITORS AND USES THEREOF” (THE TRUSTEES OF COLUMBIA UNIVERSITY IN THE CITY OF NEW YORK, priority 2022, published 2025)
# pIC50: −log10 of the molar value. Where two headings read alike, the source gives them in different places.
# Legend:
# [1] = target: T1, GPX4 (Homo sapiens, UniProt P36969); assay: GPX4 activity assay in cell lysates (NADPH-coupled); type: biochemical; design: endogenous in cells; host or cells: A-673 cell lysate
# T1 sequence (P36969 1-170 isoform P36969-2): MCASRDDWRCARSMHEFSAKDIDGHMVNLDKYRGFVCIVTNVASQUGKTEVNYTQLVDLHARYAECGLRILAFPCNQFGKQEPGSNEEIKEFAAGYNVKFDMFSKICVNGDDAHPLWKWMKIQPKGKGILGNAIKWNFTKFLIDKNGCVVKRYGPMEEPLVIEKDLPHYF
# How it was run: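 Native GPX4 in lysates of A-673 cells grown with 20 nM sodium selenite; lysate preincubated with compound 45 min at 37 °C in pH 8.0 buffer with 3 mM GSH, 0.5 mM NADPH and glutathione reductase. Reaction started with phosphatidylcholine hydroperoxide; NADPH consumption followed at 340 nm over 25 min; triplicates.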
# [2] = tested on: HT-1080 cells; assay: Cellular dose response assay, HT-1080 with and without Fer-1; type: cell-based, human; conditions: for Selectivity: ferroptosis selectivity, IC50 with Fer-1 / IC50
# Description: HT-1080 (human [Homo sapiens] […] fibrosarcoma), A-673 (human [Homo sapiens] […] Ewing's sarcoma), and SK-HEP-1 (human [Homo sapiens] […] hepatic adenocarcinoma), cells were obtained from ATCC. Huh7 (human [Homo sapiens] […] hepatocellular carcinoma), HLF (human [Homo sapiens] […] hepatocellular carcinoma), HepG2 (human [Homo sapiens] […] hepatocellular carcinoma), cells were obtained from the Cancer Cell Bank at Columbia University Irving Medical Center. HT-1080, A-673, Huh-7, and HLF cells were grown in Dulbecco's Modified Eagle Medium (DMEM) supplemented with 10% heat inactivated fetal bovine serum (HI-FBS), 1% non-essential amino acids, and 1% penicillin streptomycin. HepG2 and SK-HEP-1 cells were grown in Eagle's Minimum Essential Medium (EMEM) supplemented with 10% HI-FBS, and 1% penicillin-streptomycin. All cells were cultured at 37° C. and 5% CO2.
# HT-1080, HepG2, Huh7, HLF, and SK-HEP-1 cells were seeded into opaque white 384-well plates at 1500 cells per well then incubated at 37° C. with 5% CO2 overnight. The next day, compounds of interest were dissolved in DMSO and 12-point 2-fold dilution series were prepared with and without Fer-1. Cells were treated in triplicate (final DMSO concentration of 0.4% in all wells, including DMSO-only control wells) and incubated for a further 48 hours at 37° C. and 5% CO2. Cell viability was evaluated using CellTiter-Glo (Promega G7573) and luminescence was recorded on a Victor 5 plate reader. Data were analyzed in GraphPad Prism 9 and error bars represent standard deviation values for three technical replicates in a representative experiment.
# [3] = with Fer-1, Table 10, read-out: IC50 (μM) HT1080 + Fer-1
# [4] = without Fer-1, Table 10, read-out: IC50 (μM) HT1080
SMILES,GPX4% inhibition at 2.5 μM ([1]; 2.5 μM),also measured
COc1ccc(-c2ccc3c(C(=O)N4CCC(OC(=O)CCl)C4(C)C)nn(C)c3c2)cc1Cl (stereo not shown) [QW-676],22.9 ± 12.1%,
CCOc1ccc(-c2ccc3c(-n4cc(C(C)(C)COC(=O)CCl)nn4)nn(C)c3c2)cc1Cl [QW-681],31.0 ± 4.9%,
Cn1nc(C(=O)NC(COC(=O)CCl)C(F)(F)F)c2ccc(Br)cc21 (stereo not shown) [QW-683],,"GPX4% inhibition at 2.5 μM ([1]; 2.5 μM, generation 2): −37.4 ± 5.2%"
Cn1nc(C(=O)NC(COC(=O)CCl)C(F)(F)F)c2ccc(-c3ccc(N4CCOCC4)c(Cl)c3)cc21 (stereo not shown) [QW-687],7.9 ± 2.3%,
Cn1nc(C(=O)N2CCC(OC(=O)CCl)C2(C)C)c2ccc(-c3ccc(N4CCOCC4)c(Cl)c3)cc21 (stereo not shown) [QW-691],30.5 ± 7.4%,
Cn1nc(-c2nnc(C(C)(OC(=O)CCl)C(F)(F)F)o2)c2ccc(Br)cc21 (stereo not shown) [QW-694],,"GPX4% inhibition at 2.5 μM ([1]; 2.5 μM, generation 2): 10.6 ± 5.8%"
COc1ccc(-c2ccc3c(-c4nnc(C(C)(OC(=O)CCl)C(F)(F)F)o4)nn(C)c3c2)cc1Cl (stereo not shown) [QW-699],2.4 ± 17.3%,
Cn1nc(-c2nnc(C(C)(OC(=O)CCl)C(F)(F)F)o2)c2ccc(-c3ccc(N4CCOCC4)c(Cl)c3)cc21 (stereo not shown) [QW-700],−2.2 ± 5.0%,
Cn1nc(C(=O)N2CCC(OC(=O)CCl)C2(C)C)c2ccc(-c3ccc4c(c3)OCO4)cc21 (stereo not shown) [QW-702],23.8 ± 3.7%,
Cn1nc(C(=O)NC(C)(C)COC(=O)CCl)c2ccc(-c3ccc(OCC(F)(F)F)cc3)cc21 [QW-719],2.4 ± 17.3%,GPX4 inhibition rate ([1]; concentration not given): no inhibition on GPX4
CC(C)Oc1ccc(-c2ccc3c(C(=O)NC(C)(C)COC(=O)CCl)nn(C)c3c2)cn1 [QW-720],76.9 ± 4.2%,"GPX4 inhibitory activity, result in words [1]: substantially higher GPX4 inhibitory activities than QW-446"
COc1ccc(-c2ccc3c(NC(=O)C(C)(C)COC(=O)CCl)nn(C)c3c2)cc1Cl [QW-722],−2.2 ± 5.0%,
Cn1nc(C(=O)NC(C)(C)COC(=O)CCl)c2ccc(-c3ccc(S(=O)(=O)N4CCC4)cc3)cc21 [QW-724],23.8 ± 3.7%,
COc1c(Cl)cc(-c2ccc3c(-n4cc(CCOC(=O)CCl)nn4)nn(C)c3c2)cc1Cl [QW-752],−6.6 ± 9.7%,
Cn1nc(-n2cc(CCOC(=O)CCl)nn2)c2ccc(-c3ccc(N4CCOCC4)c(Cl)c3)cc21 [QW-756],41.6 ± 9.0%,
Cn1nc(C(=O)NC(C)(C)C(C)(C)OC(=O)CCl)c2ccc(-c3ccc(OC(F)(F)F)c(Cl)c3)cc21 [QW-759],18.4 ± 8.3%,
CC(C)Oc1ncc(-c2ccc3c(-n4cc(C(C)(C)COC(=O)CCl)nn4)nn(C)c3c2)cn1 [QW-760],14.6 ± 12.4%,
Cn1nc(-n2cc(CCOC(=O)CCl)nn2)c2ccc(-c3ccc(OC(F)(F)F)c(Cl)c3)cc21 [QW-764],25.4 ± 12.0%,
CCOc1ccc(-c2ccc3c(C(=O)NC(C)(C)C(C)(C)OC(=O)CCl)nn(C)c3c2)cc1Cl [QW-765],12.0 ± 10.7%,
COc1ncc(-c2ccc3c(C(=O)NC(C)(C)COC(=O)CCl)nn(C)c3c2)cc1F [QW-768],32.6 ± 7.9%,
Cn1nc(C(=O)NCC(C)(C)OC(=O)CCl)c2ccc(-c3ccc(N4CCOCC4)c(Cl)c3)cc21 [QW-775],36.2 ± 4.1%,
COc1c(Cl)cc(-c2ccc3c(C(=O)NCC(C)(C)OC(=O)CCl)nn(C)c3c2)cc1Cl [QW-778],30.4 ± 10.0%,
Cn1nc(C(=O)NCC(C)(C)OC(=O)CCl)c2ccc(-c3ccc(OC(F)(F)F)c(Cl)c3)cc21 [QW-779],39.1 ± 17.7%,

SMILES,GPX4% inhibition at 2.5 μM ([1]; 2.5 μM),also measured
CCOc1ccc(-c2ccc3c(C(=O)NCC(C)(C)OC(=O)CCl)nn(C)c3c2)cc1Cl [QW-782],−1.0 ± 32.8%,
COc1ccc(-c2ccc3c(C(=O)NCC(C)(C)OC(=O)CCl)nn(C)c3c2)cc1Br [QW-783],−172.4 ± 10.3%,
Cn1nc(-n2cc(C(C)(C)COC(=O)CCl)nn2)c2ccc(-c3ccc(C(F)(F)F)c(Cl)c3)cc21 [QW-787],35.1 ± 29.1%,
Cn1nc(-n2cc(C(C)(C)CNC(=O)CCl)nn2)c2ccc(-c3ccc(N4CCOCC4)c(Cl)c3)cc21 [QW-793],−53.4 ± 17.0%,
Cn1nc(C(=O)NC(C)(C)COC(=O)CCl)c2ccc(-c3ccc(C(F)(F)F)c(Cl)c3)cc21 [QW-794],78.5 ± 10.5%,
COc1c(F)cc(-c2ccc3c(C(=O)NC(C)(C)COC(=O)CCl)nn(C)c3c2)cc1Cl [QW-802],80.1 ± 4.7%,
CC(C)Oc1c(Cl)cc(-c2ccc3c(C(=O)NC(C)(C)C(C)(C)OC(=O)CCl)nn(C)c3c2)cc1Cl [QW-808],36.3 ± 16.1%,
COc1c(Cl)cc(-c2ccc3c(-n4cc(C(C)(C)COC(=O)CCl)nn4)nn(C)c3c2)cc1C(F)(F)F [QW-817],75.3 ± 14.5%,
CC(C)Oc1c(Cl)cc(-c2ccc3c(C(=O)NC(C)(C)COC(=O)CCl)nn(C)c3c2)cc1Cl [QW-820],71.4 ± 6.9%,
COc1ccc(-c2ccc3c(C(=O)NC(C)(C)COC(=O)CCl)nn(C)c3c2)c(Cl)c1Cl [QW-826],66.2 ± 5.4%,
COc1ccc(-c2ccc3c(-n4cc(C(C)(C)COC(=O)CCl)nn4)nn(C)c3c2)c(Cl)c1Cl [QW-829],68.7 ± 3.6%,
COc1cc(F)c(-c2ccc3c(C(=O)NC(C)(C)COC(=O)CCl)nn(C)c3c2)cc1Cl [QW-830],65.5 ± 5.9%,
COc1c(Cl)cc(-c2ccc3c(C(=O)NC(C)(C)COC(=O)CCl)nn(Cc4ccc(Cl)cc4)c3c2)cc1C(F)(F)F [QW-836],,"GPX4 inhibition ([1]; 2.5 μM): 50%; GPX4% inhibition at 2.5 μM ([1]; 2.5 μM, 4th generation): 45.7 ± 17.5%"
CCOc1ccc(-c2ccc3c(C(=O)NC(C)(C)COC(=O)CCl)nn(Cc4ccc(Cl)cc4)c3c2)cc1Cl [QW-840],,"GPX4% inhibition at 2.5 μM ([1]; 2.5 μM, 4th generation): 80.1 ± 11.8%"
COc1c(Cl)cc(-c2ccc3c(C(=O)NC(C)(C)COC(=O)CCl)nn(Cc4ccc(Cl)cc4)c3c2)cc1Cl [QW-843],,"GPX4% inhibition at 2.5 μM ([1]; 2.5 μM, 4th generation): 76.8 ± 11.4%"
CCCOc1ccc(-c2ccc3c(C(=O)NC(C)(C)COC(=O)CCl)nn(Cc4ccc(Cl)cc4)c3c2)cc1Cl [QW-846],,"GPX4% inhibition at 2.5 μM ([1]; 2.5 μM, 4th generation): 91.5 ± 3.9%"
COc1ccc(-c2ccc3c(C(=O)NC(C)(C)C(C)(C)OC(=O)CCl)nn(Cc4cc(Cl)cc(Cl)c4)c3c2)cc1Cl [QW-886],,"Selectivity [2]: 4.5; IC50 [2, 3]: 55.3 µM; IC50 [2, 4]: 12.4 µM"
CC(C)(NC(=O)c1nn(Cc2cc(Cl)cc(Cl)c2)c2cc(-c3ccc(N4CCOCC4)c(Cl)c3)ccc12)C(C)(C)OC(=O)CCl [QW-887],,"Selectivity [2]: >174; IC50 [2, 3]: > 40 µM; pIC50 ([2]; without Fer-1, Table 10, read-out: IC50 HT1080): 6.63"
COc1ccc(-c2ccc3c(C(=O)NC(C)(C)COC(=O)CCl)nn(Cc4cccc(C(C)=O)c4)c3c2)cc1Cl [QW-892],,"Selectivity [2]: 1.6; IC50 [2, 3]: 37.7 µM; IC50 [2, 4]: 23.7 µM"
COc1ccc(-c2ccc3c(C(=O)NC(C)(C)COC(=O)CCl)nn(Cc4ccc(Cl)nc4)c3c2)cc1Cl [QW-897],,"Selectivity [2]: 7.5; IC50 [2, 3]: 9 µM; IC50 [2, 4]: 1.2 µM"
CC(C)(COC(=O)CCl)NC(=O)c1nn(Cc2ccc(Cl)nc2)c2cc(-c3ccc(N4CCOCC4)c(Cl)c3)ccc12 [QW-898],,"Selectivity [2]: 6.8; IC50 [2, 3]: 8.1 µM; IC50 [2, 4]: 1.2 µM"
CC(C)(COC(=O)CCl)NC(=O)c1c2ccc(-c3ccc(N4CCOCC4)c(Cl)c3)cc2nn1Cc1ccc(Cl)nc1 [QW-904],,"ferroptosis selectivity ([2]; HT-1080): 3.8; Selectivity [2]: 3.8; IC50 [2, 3]: 2.8 µM; IC50 [2, 4]: 0.74 µM"
